The record followed here is US10077261B2, “Imidazolin-5-one derivative useful as FASN inhibitors for the treatment of cancer” (Janssen Pharmaceutica NV, priority 2012, dated 2018).

Bounds are passed on as bounds.

For test [1], the target named is Fatty Acid Synthase Keto-reductase Domain (FASN KR) (Homo sapiens, UniProt P49327). The test can be described thus: Fatty Acid Synthase keto-reductase domain (FASN KR) inhibition, NADPH oxidation at 340 nm.
Method: After 20 minutes incubation at room temperature the plate was measured again (T2).
The decrease in absorbance was calculated as (Absorbance before incubation T1)−(Absorbance following incubation T2).
A plot of Controlmin versus test compound concentration was fitted to a 4-parameter logistic curve using a non-linear least squares regression method.
Test [2] has as its system LNCaP-Vancouver prostate cells. The test can be described thus: In vitro LNCaP Vancouver prostate cell proliferation assay in lipid reduced medium. In kind it is cell-based. The settings on record: read-out: pIC50 LNCaP_Vancouver prostate cell (converted).
Test [3] relates to PC-3M-Luc-C6 prostate cells. Briefly: In vitro PC-3M-Luc-C6 prostate cell proliferation assay in lipid reduced medium. In kind it is cell-based. The settings on record: 96 h, read-out: pIC50 PC-3M-Luc-C6 prostate cell (converted).
The target of test [4] is T1, hFASN enzyme (full length) (Homo sapiens, UniProt P49327).
T1 construct: 10 μL hFASN enzyme (full length, 300 ng, purified in house); made in house
Briefly: Fatty Acid Synthase (FASN) inhibition scintillation proximity assay. It is filed as biochemical. The note with it: for inhibition at 10 µM: read-out: Human FASN % inhibition @ 10 μM, 10 μM test compound; for IC50: read-out: Human FASN pIC50 (converted). The essentials:
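Compounds at 0.01–30 μM were mixed with 300 ng purified full-length enzyme in 100 mM KH2PO4 pH 7.5, 1 mM DTT. Substrates ³H-acetyl-CoA and malonyl-CoA were then converted, and bead addition stopped the reaction. Signal was normalised to low and high plate controls and fitted by 4-parameter nonlinear regression.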
For orientation: Scintillation proximity formats need no separation of bound from free tracer.

T1 sequence (P49327 whole entry): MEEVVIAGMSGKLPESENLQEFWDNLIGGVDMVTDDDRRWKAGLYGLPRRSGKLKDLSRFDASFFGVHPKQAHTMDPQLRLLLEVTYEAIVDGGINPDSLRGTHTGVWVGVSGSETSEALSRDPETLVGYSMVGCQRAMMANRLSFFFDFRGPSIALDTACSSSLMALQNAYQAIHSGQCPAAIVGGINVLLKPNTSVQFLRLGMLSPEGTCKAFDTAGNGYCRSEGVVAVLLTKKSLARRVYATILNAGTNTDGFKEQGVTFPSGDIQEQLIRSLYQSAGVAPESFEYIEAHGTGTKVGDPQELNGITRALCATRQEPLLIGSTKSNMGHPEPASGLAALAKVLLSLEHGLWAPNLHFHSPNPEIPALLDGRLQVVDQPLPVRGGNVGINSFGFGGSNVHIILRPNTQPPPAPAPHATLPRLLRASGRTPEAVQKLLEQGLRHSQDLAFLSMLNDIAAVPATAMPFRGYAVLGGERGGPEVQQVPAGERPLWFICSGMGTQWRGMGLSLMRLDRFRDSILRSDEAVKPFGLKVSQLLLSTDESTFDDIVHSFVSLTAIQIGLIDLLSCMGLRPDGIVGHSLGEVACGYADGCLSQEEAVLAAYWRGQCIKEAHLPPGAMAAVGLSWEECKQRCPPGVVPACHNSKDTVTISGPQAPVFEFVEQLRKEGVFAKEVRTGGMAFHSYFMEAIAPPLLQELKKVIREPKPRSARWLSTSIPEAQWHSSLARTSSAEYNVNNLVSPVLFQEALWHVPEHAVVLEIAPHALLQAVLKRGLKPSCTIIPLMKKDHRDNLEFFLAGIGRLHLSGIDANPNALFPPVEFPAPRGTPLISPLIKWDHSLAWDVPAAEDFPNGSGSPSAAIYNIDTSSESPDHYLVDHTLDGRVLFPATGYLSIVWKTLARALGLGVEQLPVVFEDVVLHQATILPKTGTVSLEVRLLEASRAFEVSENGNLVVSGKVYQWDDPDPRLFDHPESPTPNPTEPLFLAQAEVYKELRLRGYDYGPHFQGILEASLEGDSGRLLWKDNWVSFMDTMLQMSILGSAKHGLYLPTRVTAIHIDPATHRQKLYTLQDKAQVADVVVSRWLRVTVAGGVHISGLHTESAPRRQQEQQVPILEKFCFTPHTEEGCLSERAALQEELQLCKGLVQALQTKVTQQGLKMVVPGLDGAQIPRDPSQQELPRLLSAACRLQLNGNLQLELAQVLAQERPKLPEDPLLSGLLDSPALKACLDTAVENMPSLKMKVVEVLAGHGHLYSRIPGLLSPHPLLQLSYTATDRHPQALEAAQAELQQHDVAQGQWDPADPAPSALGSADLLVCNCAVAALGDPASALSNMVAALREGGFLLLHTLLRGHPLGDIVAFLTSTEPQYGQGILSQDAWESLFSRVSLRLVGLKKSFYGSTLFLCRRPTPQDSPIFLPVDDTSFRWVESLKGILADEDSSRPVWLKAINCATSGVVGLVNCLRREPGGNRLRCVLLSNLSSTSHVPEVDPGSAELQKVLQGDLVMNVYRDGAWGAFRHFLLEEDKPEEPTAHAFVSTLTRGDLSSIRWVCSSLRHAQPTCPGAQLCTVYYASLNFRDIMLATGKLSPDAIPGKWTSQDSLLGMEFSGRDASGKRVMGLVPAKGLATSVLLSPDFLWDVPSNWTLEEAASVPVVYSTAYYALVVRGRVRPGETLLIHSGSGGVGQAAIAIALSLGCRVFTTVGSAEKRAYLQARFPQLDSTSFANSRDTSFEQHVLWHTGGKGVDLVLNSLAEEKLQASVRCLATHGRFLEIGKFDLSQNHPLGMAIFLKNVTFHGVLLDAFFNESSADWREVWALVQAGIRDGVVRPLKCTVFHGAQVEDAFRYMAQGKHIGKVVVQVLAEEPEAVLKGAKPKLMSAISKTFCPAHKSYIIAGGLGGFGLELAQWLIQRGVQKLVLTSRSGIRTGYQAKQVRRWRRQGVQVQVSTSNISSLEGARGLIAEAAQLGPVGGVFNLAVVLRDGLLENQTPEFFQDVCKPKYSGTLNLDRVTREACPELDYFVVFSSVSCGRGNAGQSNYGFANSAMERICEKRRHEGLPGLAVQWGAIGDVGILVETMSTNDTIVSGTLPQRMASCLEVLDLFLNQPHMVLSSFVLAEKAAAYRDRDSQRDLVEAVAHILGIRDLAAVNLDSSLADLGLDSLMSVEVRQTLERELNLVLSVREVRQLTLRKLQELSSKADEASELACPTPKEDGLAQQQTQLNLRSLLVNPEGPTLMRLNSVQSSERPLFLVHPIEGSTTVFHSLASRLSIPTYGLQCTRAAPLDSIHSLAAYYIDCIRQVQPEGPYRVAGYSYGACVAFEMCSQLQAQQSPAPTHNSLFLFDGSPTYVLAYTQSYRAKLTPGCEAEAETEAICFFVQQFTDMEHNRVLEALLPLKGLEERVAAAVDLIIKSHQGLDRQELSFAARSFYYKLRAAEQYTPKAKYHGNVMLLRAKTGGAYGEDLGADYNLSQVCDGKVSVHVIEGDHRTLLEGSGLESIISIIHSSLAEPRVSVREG
Sequence of Fatty Acid Synthase Keto-reductase Domain (FASN KR) (P49327 whole entry, the tested form may be a part): as the sequence (P49327 whole entry) above

As to `O=C([C@H]1CCCO1)N1CC(CN2C(=O)C3(CCOCC3)N=C2c2ccc(-c3ccc4occc4c3)cc2)C1` [compound 704, 2-[4-(1-Benzofuran-5-yl)phenyl]-3-({1-[(2R)-tetrahydro-furan-2-ylcarbonyl]azetidin-3-yl}methyl)-8-oxa-1,3-diazaspiro[4.5]dec-1-en-4-one], the IC50 was 6610 nM in test [1], 6920 nM in test [2], about 5750 nM in test [3] and 871 nM in test [4]. For the same molecule, the inhibition at 10 µM in test [4] turned out to be 86%.
The corresponding values for `CC(O)C(=O)N1CC(CN2C(=O)C3(CCOC3)N=C2c2ccc(-c3ccc4cccnc4c3)cc2)C1` (centres unmarked) [compound 715, 3-{[1-(2-Hydroxypropanoyl)azetidin-3-yl]methyl}-2-(4-quinolin-7-ylphenyl)-7-oxa-1,3-diazaspiro[4.4]non-1-en-4-one] are 5500 nM, over 10000 nM, 5010 nM, 724 nM and 86%.
With `O=C([C@H]1CCCO1)N1CC(CN2C(=O)C3(CCOC3)N=C2c2ccc(-c3ccc4occc4c3)cc2)C1` (stereo partly drawn) [compound 720, 2-[4-(1-Benzofuran-5-yl)phenyl]-3-({1-[(2R)-tetrahydro-furan-2-ylcarbonyl]azetidin-3-yl}methyl)-7-oxa-1,3-diazaspiro[4.4]non-1-en-4-one], the IC50 in test [1] was 6460 nM; in test [2] it was 9120 nM; in test [3], 4680 nM; in test [4] it was 776 nM. The inhibition at 10 µM in test [4] stood at 87%.
For `COC(=O)N1CC2(C1)N=C(c1ccc(-c3ccc(-c4cnn(C)c4)cc3)cc1)N(C[C@@H]1CCN(C(=O)[C@H]3CCCO3)C1)C2=O` [compound 727, Methyl 6-[4′-(1-methyl-1H-pyrazol-4-yl)biphenyl-4-yl]-8-oxo-7-({(3R)-1-[(2R)-tetrahydro-furan-2-ylcarbonyl]pyrrolidin-3-yl}methyl)-2,5,7-triazaspiro[3.4]ect-5-ene-2-carboxylate] the same measures were 1100 nM, 2400 nM, 575 nM, 204 nM and 98%.
For `COC(=O)N1CC2(C1)N=C(c1ccc(-c3ccc4cccnc4c3)cc1)N(C[C@@H]1CCN(C(=O)C3CC3)C1)C2=O` [compound 728, Methyl 7-{[(3R)-1-(cyclopropylcarbonyl)pyrrolidin-3-yl]methyl}-8-oxo-6-(4-quinolin-7-ylphenyl)-2,5,7-triazaspiro[3.4]ect-5-ene-2-carboxylate] the same measures were 316 nM, 525 nM, 151 nM, 64.6 nM and 100%.
For `COC(=O)N1CC2(C1)N=C(c1ccc(-c3ccc4cccnc4c3)cc1)N(C[C@@H]1CCN(C(=O)[C@H]3CCCO3)C1)C2=O` [compound 730, Methyl 8-oxo-6-(4-quinolin-7-ylphenyl)-7-({(3R)-1-[(2R)-tetrahydro-furan-2-ylcarbonyl]pyrrolidin-3-yl}methyl)-2,5,7-triazaspiro[3.4]oct-5-ene-2-carboxylate] the same measures were 355 nM, about 407 nM, 97.7 nM, 100 nM and 102%.
As to `COC(=O)N1CC2(C1)N=C(c1ccc(-c3ccc4occc4c3)cc1)N(C[C@@H]1CCN(C(=O)C3CC3)C1)C2=O` [compound 733, Methyl 6-[4-(1-benzofuran-5-yl)phenyl]-7-{[(3R)-1-(cycloprropylcarbonyl)pyrrolidin-3-yl]methyl}-8-oxo-2,5,7-triazaspiro[3.4]oct-5-ene-2-carboxylate], the IC50 in test [1] was 537 nM; in test [2], 3310 nM; in test [3], 1290 nM; in test [4], 200 nM. Also, the inhibition at 10 µM in test [4] worked out at 96%.

One may read the inhibition as the relative decrease from the control value, in per cent.
